From ChEMBL document CHEMBL4507302, “Data for DCP probe TP-020” (2021)

How the values were obtained:
[1] = test system: Receptor-type tyrosine-protein kinase FLT3 (Homo sapiens), P36888 [D835Y]; conditions: Compound concentration 1000.0 nM
[2] = biological target: Casein kinase I isoform epsilon (Homo sapiens) (UniProt P49674); conditions: Compound concentration 1000.0 nM
[3] = biological target: Tyrosine-protein kinase JAK1 (Homo sapiens) (UniProt P23458); conditions: Compound concentration 1000.0 nM
[4] = biological target: RAC-gamma serine/threonine-protein kinase (Homo sapiens) (UniProt Q9Y243); conditions: Compound concentration 1000.0 nM
[5] = biological target: Serine/threonine-protein kinase PLK2 (Homo sapiens) (UniProt Q9NYY3); conditions: Compound concentration 1000.0 nM
[6] = biological target: Mitogen-activated protein kinase 4 (Homo sapiens) (UniProt P31152); conditions: Compound concentration 1000.0 nM
[7] = biological target: Cyclin-dependent kinase-like 1 (Homo sapiens) (UniProt Q00532); conditions: Compound concentration 1000.0 nM
[8] = biological target: D(1A) dopamine receptor (Homo sapiens) (UniProt P21728); conditions: Compound concentration 10.0 uM
[9] = biological target: Mitogen-activated protein kinase kinase kinase kinase 3 (Homo sapiens) (UniProt Q8IVH8); conditions: Compound concentration 1000.0 nM
Mitogen-activated protein kinase kinase kinase kinase 3 (Homo sapiens), sequence (Q8IVH8 whole entry): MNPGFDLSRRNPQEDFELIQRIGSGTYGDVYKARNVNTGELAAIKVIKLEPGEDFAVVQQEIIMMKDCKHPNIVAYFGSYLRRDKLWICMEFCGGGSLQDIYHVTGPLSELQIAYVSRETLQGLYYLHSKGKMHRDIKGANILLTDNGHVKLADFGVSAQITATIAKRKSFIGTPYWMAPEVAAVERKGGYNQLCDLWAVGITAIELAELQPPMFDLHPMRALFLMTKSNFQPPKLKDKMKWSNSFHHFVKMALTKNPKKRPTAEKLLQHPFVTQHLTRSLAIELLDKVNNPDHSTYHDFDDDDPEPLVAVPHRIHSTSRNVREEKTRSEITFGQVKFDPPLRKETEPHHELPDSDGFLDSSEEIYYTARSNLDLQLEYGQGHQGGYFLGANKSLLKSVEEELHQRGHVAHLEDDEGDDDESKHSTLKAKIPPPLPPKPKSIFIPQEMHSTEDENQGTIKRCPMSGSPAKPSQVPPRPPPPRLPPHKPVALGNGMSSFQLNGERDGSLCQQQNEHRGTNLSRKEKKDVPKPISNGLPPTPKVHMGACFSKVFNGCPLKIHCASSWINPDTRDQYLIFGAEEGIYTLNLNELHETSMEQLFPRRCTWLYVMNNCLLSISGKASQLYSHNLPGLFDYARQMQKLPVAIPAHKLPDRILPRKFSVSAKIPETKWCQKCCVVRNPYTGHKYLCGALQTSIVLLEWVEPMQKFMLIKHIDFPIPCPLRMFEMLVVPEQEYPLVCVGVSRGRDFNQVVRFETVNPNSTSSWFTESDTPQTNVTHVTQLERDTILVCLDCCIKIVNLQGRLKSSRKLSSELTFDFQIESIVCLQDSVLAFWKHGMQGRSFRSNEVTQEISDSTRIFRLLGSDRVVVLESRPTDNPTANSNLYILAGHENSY

[10] = biological target: Serine/threonine-protein kinase PLK1 (Homo sapiens) (UniProt P53350); conditions: Compound concentration 1000.0 nM
[11] = biological target: Leucine-rich repeat serine/threonine-protein kinase 2 (Homo sapiens) (UniProt Q5S007); conditions: Compound concentration 1000.0 nM
[12] = biological target: D(1B) dopamine receptor (Homo sapiens) (UniProt P21918); conditions: Compound concentration 10.0 uM
[13] = biological target: Protein kinase C theta type (Homo sapiens) (UniProt Q04759); conditions: Compound concentration 1000.0 nM
[14] = biological target: Serine/threonine-protein kinase DCLK3 (Homo sapiens) (UniProt Q9C098); conditions: Compound concentration 1000.0 nM
Serine/threonine-protein kinase DCLK3 (Homo sapiens), sequence (Q9C098 whole entry): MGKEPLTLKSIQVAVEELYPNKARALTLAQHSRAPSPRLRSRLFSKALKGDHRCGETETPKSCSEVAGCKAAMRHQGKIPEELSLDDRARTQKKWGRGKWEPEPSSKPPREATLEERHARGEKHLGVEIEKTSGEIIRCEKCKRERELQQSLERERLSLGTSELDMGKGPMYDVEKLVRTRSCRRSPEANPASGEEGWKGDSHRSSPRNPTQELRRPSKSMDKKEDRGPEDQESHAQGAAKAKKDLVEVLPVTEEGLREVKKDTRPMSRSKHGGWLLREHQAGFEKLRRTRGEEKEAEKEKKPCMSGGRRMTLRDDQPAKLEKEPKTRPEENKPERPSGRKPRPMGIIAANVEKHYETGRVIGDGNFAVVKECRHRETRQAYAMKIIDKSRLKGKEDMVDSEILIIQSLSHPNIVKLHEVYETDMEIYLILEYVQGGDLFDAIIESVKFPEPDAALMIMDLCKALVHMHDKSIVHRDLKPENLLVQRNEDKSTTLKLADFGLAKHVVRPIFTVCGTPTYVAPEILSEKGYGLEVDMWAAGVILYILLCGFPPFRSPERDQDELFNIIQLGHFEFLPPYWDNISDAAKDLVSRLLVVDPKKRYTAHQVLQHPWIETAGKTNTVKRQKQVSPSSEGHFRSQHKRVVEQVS

[15] = biological target: Wee1-like protein kinase (Homo sapiens) (UniProt P30291); conditions: Compound concentration 1000.0 nM
Wee1-like protein kinase (Homo sapiens), sequence (P30291 whole entry, looked up): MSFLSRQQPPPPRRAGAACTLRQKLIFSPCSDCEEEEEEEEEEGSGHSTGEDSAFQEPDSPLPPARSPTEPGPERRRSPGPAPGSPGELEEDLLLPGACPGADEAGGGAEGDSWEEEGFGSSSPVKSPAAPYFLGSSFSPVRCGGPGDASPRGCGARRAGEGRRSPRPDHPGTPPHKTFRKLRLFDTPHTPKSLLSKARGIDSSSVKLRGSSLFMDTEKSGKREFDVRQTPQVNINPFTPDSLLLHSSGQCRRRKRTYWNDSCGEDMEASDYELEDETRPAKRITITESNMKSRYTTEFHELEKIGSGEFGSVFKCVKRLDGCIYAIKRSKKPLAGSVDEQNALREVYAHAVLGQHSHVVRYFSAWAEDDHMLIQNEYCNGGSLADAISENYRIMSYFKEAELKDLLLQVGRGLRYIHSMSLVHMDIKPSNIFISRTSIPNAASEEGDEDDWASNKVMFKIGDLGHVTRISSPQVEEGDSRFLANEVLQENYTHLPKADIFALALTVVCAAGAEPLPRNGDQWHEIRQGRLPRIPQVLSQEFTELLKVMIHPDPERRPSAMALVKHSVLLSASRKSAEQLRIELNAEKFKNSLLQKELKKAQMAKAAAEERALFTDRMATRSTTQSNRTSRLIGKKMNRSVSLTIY

[16] = biological target: Protein kinase C eta type (Homo sapiens) (UniProt P24723); conditions: Compound concentration 1000.0 nM
[17] = biological target: Serine/threonine-protein kinase BRSK1 (Homo sapiens) (UniProt Q8TDC3); conditions: Compound concentration 1000.0 nM
[18] = biological target: Receptor tyrosine-protein kinase erbB-3 (Homo sapiens) (UniProt P21860); conditions: Compound concentration 1000.0 nM
[19] = biological target: Non-receptor tyrosine-protein kinase TYK2 (Homo sapiens) (UniProt P29597); conditions: Compound concentration 1000.0 nM
[20] = biological target: Mitogen-activated protein kinase 12 (Homo sapiens) (UniProt P53778); conditions: Compound concentration 1000.0 nM
[21] = biological target: Muscle, skeletal receptor tyrosine-protein kinase (Homo sapiens) (UniProt O15146); conditions: Compound concentration 1000.0 nM
[22] = test system: Tyrosine-protein kinase ABL1 (Homo sapiens), P00519 [F317L]; conditions: Compound concentration 1000.0 nM
Tyrosine-protein kinase ABL1 (Homo sapiens), P00519 [F317L], sequence (P00519 whole entry F317L): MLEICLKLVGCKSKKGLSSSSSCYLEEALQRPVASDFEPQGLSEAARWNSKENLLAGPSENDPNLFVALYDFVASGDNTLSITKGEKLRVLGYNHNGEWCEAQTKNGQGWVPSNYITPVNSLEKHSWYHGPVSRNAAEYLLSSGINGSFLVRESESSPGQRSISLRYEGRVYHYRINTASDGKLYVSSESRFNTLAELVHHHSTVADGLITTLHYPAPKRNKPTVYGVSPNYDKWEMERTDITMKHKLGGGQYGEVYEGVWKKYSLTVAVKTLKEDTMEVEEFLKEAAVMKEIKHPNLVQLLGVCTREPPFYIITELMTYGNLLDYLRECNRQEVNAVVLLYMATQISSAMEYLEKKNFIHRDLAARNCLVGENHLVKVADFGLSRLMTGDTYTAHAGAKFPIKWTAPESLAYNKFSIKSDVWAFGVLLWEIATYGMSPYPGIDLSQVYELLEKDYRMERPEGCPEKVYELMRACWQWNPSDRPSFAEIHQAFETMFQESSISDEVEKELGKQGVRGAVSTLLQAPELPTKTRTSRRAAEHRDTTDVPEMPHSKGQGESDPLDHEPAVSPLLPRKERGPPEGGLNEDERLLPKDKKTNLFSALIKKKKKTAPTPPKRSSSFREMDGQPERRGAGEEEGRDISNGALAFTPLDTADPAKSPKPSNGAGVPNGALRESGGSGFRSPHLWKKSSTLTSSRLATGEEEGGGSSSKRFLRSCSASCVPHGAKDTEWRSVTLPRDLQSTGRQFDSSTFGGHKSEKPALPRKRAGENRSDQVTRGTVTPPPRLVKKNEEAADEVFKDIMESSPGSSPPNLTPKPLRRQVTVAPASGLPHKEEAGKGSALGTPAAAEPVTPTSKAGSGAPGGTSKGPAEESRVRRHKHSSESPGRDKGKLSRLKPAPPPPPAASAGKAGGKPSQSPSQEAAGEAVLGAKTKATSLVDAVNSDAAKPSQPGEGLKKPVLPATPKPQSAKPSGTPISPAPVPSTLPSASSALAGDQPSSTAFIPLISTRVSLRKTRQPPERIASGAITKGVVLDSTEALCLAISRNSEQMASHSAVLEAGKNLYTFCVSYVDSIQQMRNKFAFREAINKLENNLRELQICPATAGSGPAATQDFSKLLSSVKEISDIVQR

[23] = test system: Mast/stem cell growth factor receptor Kit (Homo sapiens), P10721 [D816V]; conditions: Compound concentration 1000.0 nM
[24] = biological target: Macrophage colony-stimulating factor 1 receptor (Homo sapiens) (UniProt P07333); conditions: Compound concentration 1000.0 nM
[25] = biological target: Serine/threonine-protein kinase ULK2 (Homo sapiens) (UniProt Q8IYT8); conditions: Compound concentration 1000.0 nM
[26] = biological target: Cyclin-dependent kinase 4 (Homo sapiens) (UniProt P11802); conditions: Compound concentration 1000.0 nM
[27] = biological target: Macrophage-stimulating protein receptor (Homo sapiens) (UniProt Q04912); conditions: Compound concentration 1000.0 nM
[28] = biological target: Tyrosine-protein kinase BTK (Homo sapiens) (UniProt Q06187); conditions: Compound concentration 1000.0 nM
[29] = biological target: Ephrin type-A receptor 4 (Homo sapiens) (UniProt P54764); conditions: Compound concentration 1000.0 nM
[30] = test system: Tyrosine-protein kinase ABL1 (Homo sapiens), P00519 [F317L]; conditions: Compound concentration 1000.0 nM; remark: listed apart in the source
[31] = biological target: Bone morphogenetic protein receptor type-1A (Homo sapiens) (UniProt P36894); conditions: Compound concentration 1000.0 nM
[32] = biological target: SRSF protein kinase 3 (Homo sapiens) (UniProt Q9UPE1); conditions: Compound concentration 1000.0 nM
[33] = biological target: Tyrosine-protein kinase TXK (Homo sapiens) (UniProt P42681); conditions: Compound concentration 1000.0 nM
[34] = biological target: Serine/threonine-protein kinase NLK (Homo sapiens) (UniProt Q9UBE8); conditions: Compound concentration 1000.0 nM
[35] = biological target: Casein kinase II subunit alpha (Homo sapiens) (UniProt P68400); conditions: Compound concentration 1000.0 nM
[36] = biological target: 1-phosphatidylinositol 3-phosphate 5-kinase (Homo sapiens) (UniProt Q9Y2I7); conditions: Compound concentration 1000.0 nM
[37] = biological target: Serine/threonine-protein kinase pim-3 (Homo sapiens) (UniProt Q86V86); conditions: Compound concentration 1000.0 nM
[38] = biological target: Activin receptor type-1-like (Homo sapiens) (UniProt P37023); conditions: Compound concentration 1000.0 nM
Activin receptor type-1-like (Homo sapiens), sequence (P37023 whole entry, canonical isoform): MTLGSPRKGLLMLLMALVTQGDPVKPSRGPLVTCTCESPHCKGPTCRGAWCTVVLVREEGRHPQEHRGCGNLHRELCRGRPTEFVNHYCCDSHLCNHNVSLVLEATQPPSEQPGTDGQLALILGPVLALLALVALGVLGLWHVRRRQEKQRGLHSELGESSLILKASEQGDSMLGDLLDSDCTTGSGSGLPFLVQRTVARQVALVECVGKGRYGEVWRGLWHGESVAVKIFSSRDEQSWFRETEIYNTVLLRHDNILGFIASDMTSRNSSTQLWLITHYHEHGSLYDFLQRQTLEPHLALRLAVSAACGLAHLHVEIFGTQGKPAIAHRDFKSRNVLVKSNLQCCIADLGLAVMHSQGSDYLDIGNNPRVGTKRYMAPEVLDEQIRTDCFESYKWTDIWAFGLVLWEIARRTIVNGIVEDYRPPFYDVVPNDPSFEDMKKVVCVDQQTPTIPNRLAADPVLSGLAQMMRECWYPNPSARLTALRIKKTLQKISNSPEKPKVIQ

[39] = biological target: Casein kinase I isoform delta (Homo sapiens) (UniProt P48730); conditions: Compound concentration 1000.0 nM
[40] = biological target: MAP kinase-activated protein kinase 2 (Homo sapiens) (UniProt P49137); conditions: Compound concentration 1000.0 nM
MAP kinase-activated protein kinase 2 (Homo sapiens), sequence (P49137 whole entry, looked up): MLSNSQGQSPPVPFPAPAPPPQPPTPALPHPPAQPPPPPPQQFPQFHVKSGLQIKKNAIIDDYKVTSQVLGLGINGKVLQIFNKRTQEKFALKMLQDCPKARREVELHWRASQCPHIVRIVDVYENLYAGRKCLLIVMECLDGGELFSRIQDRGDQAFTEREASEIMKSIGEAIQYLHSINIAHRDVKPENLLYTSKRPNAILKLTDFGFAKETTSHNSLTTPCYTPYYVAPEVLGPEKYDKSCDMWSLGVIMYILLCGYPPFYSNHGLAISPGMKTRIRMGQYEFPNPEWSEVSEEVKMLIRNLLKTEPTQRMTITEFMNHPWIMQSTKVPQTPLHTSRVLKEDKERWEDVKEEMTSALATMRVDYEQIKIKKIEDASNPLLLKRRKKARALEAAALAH

[41] = biological target: Dual specificity protein kinase CLK4 (Homo sapiens) (UniProt Q9HAZ1); conditions: Compound concentration 1000.0 nM
[42] = biological target: D(3) dopamine receptor (Homo sapiens) (UniProt P35462); conditions: Compound concentration 10.0 uM
D(3) dopamine receptor (Homo sapiens), sequence (P35462 whole entry): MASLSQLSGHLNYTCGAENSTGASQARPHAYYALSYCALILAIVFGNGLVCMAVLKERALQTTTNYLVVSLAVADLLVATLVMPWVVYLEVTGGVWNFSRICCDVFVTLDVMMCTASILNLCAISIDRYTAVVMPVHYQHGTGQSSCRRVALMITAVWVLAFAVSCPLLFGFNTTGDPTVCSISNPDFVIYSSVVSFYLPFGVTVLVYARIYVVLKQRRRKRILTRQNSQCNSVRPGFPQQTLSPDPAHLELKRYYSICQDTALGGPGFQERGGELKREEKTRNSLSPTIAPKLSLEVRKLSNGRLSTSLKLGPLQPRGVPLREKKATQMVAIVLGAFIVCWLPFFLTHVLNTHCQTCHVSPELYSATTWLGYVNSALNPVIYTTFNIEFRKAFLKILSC

[43] = biological target: Serine/threonine-protein kinase Nek2 (Homo sapiens) (UniProt P51955); conditions: Compound concentration 1000.0 nM
[44] = biological target: Cyclin-dependent kinase-like 5 (Homo sapiens) (UniProt O76039); conditions: Compound concentration 1000.0 nM
[45] = biological target: LIM domain kinase 2 (Homo sapiens) (UniProt P53671); conditions: Compound concentration 1000.0 nM
[46] = biological target: Bone morphogenetic protein receptor type-2 (Homo sapiens) (UniProt Q13873); conditions: Compound concentration 1000.0 nM

Nc1cnc(N2CCc3cc(S(=O)(=O)Nc4c(F)cc(Cl)cc4F)cc(N4CCCC4=O)c32)nc1
inactive: residual activity [1] 100% | residual activity [2] 89% | residual activity [3] 100% | residual activity [4] 94% | residual activity [5] 100% | residual activity [6] 100% | residual activity [7] 85% | inhibition [8] -8.35% | residual activity [9] 93% | residual activity [10] 100% | residual activity [11] 97% | inhibition [12] 7.88% | residual activity [13] 89% | residual activity [14] 85% | residual activity [15] 72% | residual activity [16] 80% | residual activity [17] 100% | residual activity [18] 100% | residual activity [19] 100% | residual activity [20] 100% | residual activity [21] 100% | residual activity [22] 99% | residual activity [23] 100% | residual activity [24] 100% | residual activity [25] 100% | residual activity [26] 86% | residual activity [27] 98% | residual activity [28] 100% | residual activity [29] 100% | residual activity [30] 78% | residual activity [31] 91% | residual activity [32] 100% | residual activity [33] 83% | residual activity [34] 100% | residual activity [35] 100% | residual activity [36] 100% | residual activity [37] 98% | residual activity [38] 86% | residual activity [39] 98% | residual activity [40] 100% | residual activity [41] 89% | inhibition [42] 7.41% | residual activity [43] 89% | residual activity [44] 88% | residual activity [45] 100% | residual activity [46] 100%

Cn1nc(C(F)(F)F)cc1-c1cnc(N2CCc3cc(S(=O)(=O)Nc4c(F)cc(Cl)cc4F)cc(N4CCCC4=O)c32)nc1 [TP-020]
inactive: residual activity [1] 100% | residual activity [2] 86% | residual activity [3] 100% | residual activity [4] 84% | residual activity [5] 91% | residual activity [6] 100% | residual activity [7] 77% | inhibition [8] -6.95% | residual activity [9] 84% | residual activity [10] 93% | residual activity [11] 79% | inhibition [12] 42.5% | residual activity [13] 100% | residual activity [14] 86% | residual activity [15] 88% | residual activity [16] 90% | residual activity [17] 100% | residual activity [18] 93% | residual activity [19] 90% | residual activity [20] 83% | residual activity [21] 87% | residual activity [22] 60% | residual activity [23] 100% | residual activity [24] 91% | residual activity [25] 74% | residual activity [26] 82% | residual activity [27] 100% | residual activity [28] 85% | residual activity [29] 97% | residual activity [30] 94% | residual activity [31] 98% | residual activity [32] 100% | residual activity [33] 100% | residual activity [34] 98% | residual activity [35] 65% | residual activity [36] 88% | residual activity [37] 100% | residual activity [38] 87% | residual activity [39] 94% | residual activity [40] 73% | residual activity [41] 90% | inhibition [42] 2.14% | residual activity [43] 100% | residual activity [44] 91% | residual activity [45] 100% | residual activity [46] 77%
